Here are results for five substances from PMC11546786, “Designing Analogs of SAAP-148 with Enhanced Antimicrobial and Anti-LPS Activities” (International Journal of Molecular Sciences, 2024).

Ends that are not written are not given here.

For one data set, the system named is human erythrocytes. The experiment in a line: Haemolytic activity. The class given is cell-based. The protocol:
The haemolytic activity of the peptides was evaluated using a standard procedure with minor adjustments. Fresh human erythrocytes were washed thrice and subsequently resuspended at 1.25% haematocrit in PBS. Forty microlitres PBS-diluted peptide solution was added to a 96-well plate (Corning Inc., Lowell, MA, USA), and 160 μL of erythrocytes was added. After incubation at 37 °C for 30 min, the samples were centrifuged, and the absorbance of the supernatant was measured at 450 nm using a multi-well microplate reader (SpectraMax M5; Molecular Devices, Sunnyvale, CA, USA) and compared with the 100% haemolysis caused by 0.1% Triton X-100. The percentage of haemolysis was calculated according to the equation: Haemolysis%=Asample−Ablank/Atriton−Ablank×100

In a further data set the test system is five bacterial strains. Description: MICs against all five bacterial strains (geometric mean, range). The class given is cell-based. Also noted: unit not given here. The settings on record: geometric mean of MICs against all five bacterial strains. How it is done: (§1) The antibacterial activities of the peptides against […] were evaluated using a modified version of the Clinical Laboratory and Standards Institute (CLSI) broth microdilution method, as previously described. Briefly, the bacteria were cultured in liquid LB medium (comprising 10 g/L tryptone, 5 g/L yeast extract, and 10 g/L NaCl) at 37 °C until reaching mid-log phase. Subsequently, the bacterial concentration was adjusted to 1 × 10^6 colony-forming units (CFU)/mL. The peptides were then diluted serially with phosphate-buffered saline (PBS), followed by the addition of 50 μL of the diluted peptides to 50 μL of the bacterial suspension in a 96-well plate (Corning Inc., Lowell, MA, USA). After incubating at 37 °C for 18 to 20 h, the absorbance of each well was measured using a multi-well microplate reader (SpectraMax M5; Molecular Devices, Sunnyvale, CA, USA) at 600 nm.

Data set [1] in a line: Reversed-phase HPLC retention time as measure of peptide hydrophobicity. The note with it: retention time by reverse-phase HPLC, reflects hydrophobicity difference between analogues. In kind it is physicochemical. The source says:
The physicochemical parameters crucial for the antimicrobial activity of AMPs have been identified, encompassing net charge, helicity, hydrophobicity, and amphipathicity. The hydropathicity, mean relative hydrophobic moment, and charge of peptides were predicted using the HeliQuest (https://heliquest.ipmc.cnrs.fr/ (accessed on 12 March 2024)). Lysine is a hydrophilic amino acid, and its substitution leads to a decrease in the hydrophobicity of the SAAP-148 analogue. The anticipated results are consistent, with the degree of reduction in […] varying depending on the position at which lysine is substituted (Table 2). The amphipathicity of the peptides, as denoted by the μH (mean relative hydrophobic moment), is elaborated on in Table 2. The hydrophobic moment of SAAP-148 analogues was decreased except for SAAP-10, which is on account of the substitution occurring on the18th residue. (Figure 1) The 18th residue of SAAP-148 is glutamine, a polar amino acid residue, located at the junction of the hydrophobic and hydrophilic surfaces of the SAAP-148 α-helix. […] The retention time data determined by reversed-phase high-performance liquid chromatography (RP-HPLC) reflects the hydrophobicity difference between peptide analogues. It is well documented that the formation of a hydrophobic-binding domain due to peptide secondary structure can affect peptide interactions with reversed-phase matrices. This effect was observed particularly for amphipathic α-helical peptides. Given this preferred binding domain, amphipathic α-helical peptides are considerably more retentive than non-amphipathic peptides with the same amino acid composition.
This phenomenon was particularly evident in the case of amphipathic α-helical peptides. […] This discrepancy may be attributed to the lack of a well-defined α-helical structure in SAAP-148 and its analogues (Figure S1).

Data set [2] concerns Klebsiella pneumonia (1.1736). In kind it is cell-based, Klebsiella pneumoniae.
Excerpt: (§2) The LL-37, SAAP-148 and its analogues peptides were synthesized according to the standard Fmoc procedure. The Fmoc-protected resin and monomers are first treated with a basic solvent (piperidine) to remove the amino protecting groups. The carboxyl group of the next amino acid is activated by an activator. The activated monomer reacts with the free amino group to form a peptide bond. These two steps are repeated in a cycle until the synthesis is complete. After synthesis, the peptide is eluted from the column and purified by reverse-phase semipreparative high-performance liquid chromatography as detailed in Table 1. The peptides were dissolved in PBS to create a 1000 μmol/L stock solution for subsequent use. The purity of the synthetic peptide exceeded 95%. Blood samples from healthy donors were obtained from the Fifth Medical Center of Chinese PLA General Hospital (Beijing, China). Human normal lung epithelial cells (BEAS-2B) and mouse mononuclear macrophages cells (RAW 264.7) were sourced from Beyotime Biotechnology (Beijing, China), along with the Enhanced Cell Counting Kit-8 (CCK-8) and nitric oxide detection kit. RPMI-1640 and DMEM were procured from Merck (Darmstadt, Germany), while FBS was obtained from ExCell Bio (Shanghai, China). LPS-B5 (from E. coli 055:B5) was procured from Invivogen (Toulouse, France). Five bacterial strains, including Escherichia coli (1.8732), Pseudomonas aeruginosa (1.2421), Klebsiella pneumonia (1.1736) as Gram-negative bacteria, and Staphylococcus aureus (1.8721) and Staphylococcus epidermidis (1.4260) as Gram-positive bacteria, were procured from the China General Microbiological Culture Collection Centre (CGMCC) (Beijing, China).
as §1

Data set [3] is described as follows: CD spectra, secondary structure by BeStSel. The note with it: 30 μM SDS as printed, 100 μM peptide, 25 °C. The class given is physicochemical. The protocol:
CD spectra (Figure S1) were acquired using a JASCO J-1500 spectropolarimeter (JASCO Inc., Easton, MD, USA) in 0.1 cm pathlength cells under nitrogen at 25 °C. The spectra were recorded in the range of 190 to 250 nm at a peptide concentration of 100 μM in SDS. Secondary structure was determined using the BeStSel server. Hydropathicity, mean relative hydrophobic moment, and charge of peptides were predicted using the HeliQuest (https://heliquest.ipmc.cnrs.fr/ (accessed on 12 March 2024)). The 3D structure of SAAP-148 and its analogues (Figure S2) was predicted using PEP-FOLD4 servers (https://bioserv.rpbs.univ-paris-diderot.fr/services/PEP-FOLD4/ (accessed on 19 June 2024)).

Data set [4] concerns Gram-negative bacteria (E. coli, P. aeruginosa, K. pneumoniae). Description: Geometric mean of MICs against Gram-negative bacteria. In kind it is cell-based. Also noted: unit not given here. The protocol:
as §1

Data set [5] concerns human erythrocytes versus five bacterial strains. The experiment in a line: Therapeutic index (MHC/GM of MIC). The settings on record: for Fold (TI of analogue compared with SAAP-148): TI change relative to SAAP-148; for TI (MHC/MIC): ratio of MHC to geometric mean of MIC (five strains). How it is done: The geometric mean of minimum inhibitory concentration (MIC) values (GM) from the five strains was calculated to provide a comprehensive assessment of antimicrobial activity, as presented in Table 4.
The therapeutic index (TI) is a widely utilized parameter for indicating the specificity of antimicrobial agents, which is determined by the ratio of MHC (hemolytic activity) and MIC (antimicrobial activity). Consequently, larger TI values signify greater antimicrobial specificity. The TI can be enhanced through one of three mechanisms: increasing antimicrobial activity, reducing hemolytic activity while maintaining antimicrobial activity, or a combination of both augmenting antimicrobial activity and diminishing hemolytic activity.

The subject of data set [6] is Pseudomonas aeruginosa (1.2421). In kind it is cell-based.
Excerpt: as §2, §1

Data set [7] relates to Escherichia coli (1.8732). In kind it is cell-based.
Excerpt: as §2, §1

The subject of data set [8] is Staphylococcus aureus (1.8721). The class given is cell-based.
Excerpt: as §2, §1

The test system of data set [9] is Staphylococcus epidermidis (1.4260). In kind it is cell-based.
Excerpt: as §2, §1

Data set [10] concerns Gram-positive bacteria (S. aureus, S. epidermidis). Description: Geometric mean of MICs against Gram-positive bacteria. The class given is cell-based. Also noted: unit not given here. The protocol: as §1

As for KKRVWKRVFKLLKRYWRQLKKPVR-NH2 [SAAP-1], the “haemolytic activity compared with SAAP-148” value with human erythrocytes was “comparable hemolytic activity to SAAP-148”. In addition, the “MIC (GM)” value in the data set on five bacterial strains is 6.25. In addition, the “Rt” value in data set [1] is 11.419 min. The “MIC K. pneumoniae” value in [2] was determined as 6.25 µM. In data set [3], this substance showed an Others of 0%, a Turn of 0%, a α-Helix of 93.5% and a β-Antiparallel of 6.5%. The substance also showed a β-Parallel in data set [3] of 0%. The “GM to G−” value in data set [4] was found to be 3.94. In addition, in [5], the “Fold (TI of analogue compared with SAAP-148)” value is given as 1.1 and the “TI (MHC/MIC)” value is recorded as 0.12. The “MIC P. aeruginosa” value in data set [6] stood at 3.13 µM. For the same substance, in data set [7], the “MIC E. coli” value amounted to 3.13 µM. In addition, the “MIC S. aureus” value in data set [8] turned out to be 50.00 µM. The “MIC S. epidermidis” value in [9] amounted to 3.13 µM. For the same substance, the “GM to G+” value in data set [10] worked out at 12.51.
Consider LKRKWKRVFKLLKRYWRQLKKPVR-NH2 [SAAP-2], for which, in the data set with human erythrocytes, the “haemolytic activity compared with SAAP-148” value is recorded as “comparable hemolytic activity to SAAP-148”. The “MIC (GM)” value in the data set on five bacterial strains amounted to 7.18. In data set [1], the “Rt” value is 12.532 min. Besides, the “MIC K. pneumoniae” value in [2] is 12.50 µM. Further, in data set [3], the Others came out at 0%, the Turn was found to be 0%, the α-Helix worked out at 93.5% and the β-Antiparallel is reported as 6.5%. Also, in data set [3], the β-Parallel was 0%. The “GM to G−” value in data set [4] is 4.97. Moreover, in data set [5], the “Fold (TI of analogue compared with SAAP-148)” value was determined as 1 and the “TI (MHC/MIC)” value is 0.11. In addition, the “MIC P. aeruginosa” value in [6] amounted to 3.13 µM. Further, the “MIC E. coli” value in data set [7] was determined as 3.13 µM. For the same substance, the “MIC S. aureus” value in [8] is 50.00 µM. Moreover, the “MIC S. epidermidis” value in data set [9] worked out at 3.13 µM. For the same substance, the “GM to G+” value in data set [10] was found to be 12.51.
In the case of LKRVWKRVFKLLKRYWRQLKKKVR-NH2 [SAAP-12], the “haemolytic activity compared with SAAP-148” value in the data set with human erythrocytes was “comparable hemolytic activity to SAAP-148”. Besides, the “MIC (GM)” value against five bacterial strains was found to be 18.95. The “Rt” value in data set [1] is reported as 16.604 min. The “MIC K. pneumoniae” value in data set [2] is 100.00 µM. Also, in data set [3], the Others is 0%, the Turn was determined as 0%, the α-Helix is recorded as 100% and the β-Antiparallel was found to be 0%. For the same substance, the β-Parallel in [3] is recorded as 0%. Besides, the “GM to G−” value in [4] was 25. Besides, in data set [5], the “Fold (TI of analogue compared with SAAP-148)” value is reported as 0.36 and the “TI (MHC/MIC)” value is 0.04. In addition, the “MIC P. aeruginosa” value in data set [6] turned out to be 12.50 µM. The “MIC E. coli” value in data set [7] was determined as 12.50 µM. The “MIC S. aureus” value in data set [8] came to 25.00 µM. Further, the “MIC S. epidermidis” value in [9] came to 6.25 µM. The “GM to G+” value in data set [10] came to 12.5.
As for LKRVWKRVFKLLKRYWRKLKKPVR-NH2 [SAAP-10], in the data set with human erythrocytes, the “haemolytic activity compared with SAAP-148” value is “comparable hemolytic activity to SAAP-148”. Also, the “MIC (GM)” value against five bacterial strains came to 10.88. Besides, the “Rt” value in data set [1] is reported as 13.69 min. Besides, the “MIC K. pneumoniae” value in data set [2] was found to be 25.00 µM. Further, in data set [3], the Others was 0%, the Turn was determined as 0%, the α-Helix is listed as 100% and the β-Antiparallel came to 0%. The β-Parallel in [3] was determined as 0%. Besides, the “GM to G−” value in data set [4] was found to be 9.92. In addition, in [5], the “Fold (TI of analogue compared with SAAP-148)” value came to 0.64 and the “TI (MHC/MIC)” value was 0.07. For the same substance, the “MIC P. aeruginosa” value in [6] was determined as 6.25 µM. For the same substance, in data set [7], the “MIC E. coli” value was 6.25 µM. Further, the “MIC S. aureus” value in data set [8] worked out at 50.00 µM. Moreover, the “MIC S. epidermidis” value in data set [9] amounted to 3.13 µM. Also, the “GM to G+” value in data set [10] turned out to be 12.51.
Turning to LKRVWKRKFKLLKRYWRQLKKPVR-NH2 [SAAP-4], the “fold increase of MHC over that of SAAP-148” value in the data set with human erythrocytes came to 133.33 fold. In the data set on five bacterial strains, the “MIC (GM)” value came to 10.88. In [1], the “Rt” value came out at 9.96 min. The “MIC K. pneumoniae” value in [2] was determined as 100.00 µM. In [3], the Others came out at 3.6%, the Turn is listed as 0%, the α-Helix is given as 50.9% and the β-Antiparallel amounted to 45.5%. Further, the β-Parallel in [3] is reported as 0%. Besides, in data set [4], the “GM to G−” value is recorded as 7.87. Besides, in data set [5], the “Fold (TI of analogue compared with SAAP-148)” value was 83.55 and the “TI (MHC/MIC)” value stood at 9.19. Besides, in data set [6], the “MIC P. aeruginosa” value came out at 3.13 µM. Moreover, the “MIC E. coli” value in [7] came out at 1.56 µM. Moreover, the “MIC S. aureus” value in data set [8] stood at 100.00 µM. In data set [9], the “MIC S. epidermidis” value was 3.13 µM. In addition, the “GM to G+” value in data set [10] was 17.69.
